Reference: US10294248B2, “Beta-lactamase inhibitors” (VenatoRx Pharmaceuticals, Inc., priority 2013, dated 2019)

Assays:
[1] = target: T1, SHV-5 β-lactamase (Class A ESBL) (Klebsiella pneumoniae, UniProt P0A3M1); assay: β-Lactamase inhibition, SHV-5; assay type: biochemical
T1 construct: made in house; host or cells: E. coli BL21(DE3)
How it was run: (§1)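 Native untagged β-lactamases were expressed in E. coli BL21(DE3), then purified by cation exchange and gel filtration. Enzyme was preincubated with inhibitor for 15 min at 37 °C before substrate was added. Imipenem (A300) served KPC-2 and cefotaxime (A260) served SHV-5. IC50 was taken from initial hydrolysis rates relative to no-inhibitor controls.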

[2] = target: T2, KPC-2 β-lactamase (Class A carbapenemase) (Klebsiella pneumoniae, UniProt Q9F663); assay: β-Lactamase inhibition, KPC-2; assay type: biochemical; details: imipenem substrate, 300 nm; 15 min preincubation at 37° C., PBS pH 7.4
T2 construct: made in house; host or cells: E. coli BL21(DE3)
T2 sequence (Q9F663 25-293, looked up): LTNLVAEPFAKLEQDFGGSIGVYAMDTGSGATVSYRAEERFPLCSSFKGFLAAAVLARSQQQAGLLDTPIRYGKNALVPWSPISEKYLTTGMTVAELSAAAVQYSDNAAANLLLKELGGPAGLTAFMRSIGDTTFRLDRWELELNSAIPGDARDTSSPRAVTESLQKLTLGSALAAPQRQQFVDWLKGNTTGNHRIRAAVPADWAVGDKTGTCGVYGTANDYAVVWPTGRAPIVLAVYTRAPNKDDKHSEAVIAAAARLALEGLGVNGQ
How it was run: as §1

[3] = target: T3, VIM-2 metallo-β-lactamase (Class B) (Pseudomonas aeruginosa, UniProt Q9K2N0); assay: β-Lactamase inhibition, VIM-2; assay type: biochemical; details: nitrocefin 100 μM, 486 nm; 15 min preincubation at 37° C., PBS pH 7.4
T3 construct: made in house; host or cells: E. coli BL21(DE3)
How it was run: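 IC50 reflects the inhibitor concentration cutting the initial nitrocefin hydrolysis rate by half, compared with control wells lacking inhibitor. Substrate was used at 100 μM final after a 15 min, 37 °C enzyme–inhibitor preincubation.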

[4] = target: T4, p99 AmpC β-lactamase (Class C) (Enterobacter cloacae, UniProt P05364); assay: β-Lactamase inhibition, p99 AmpC; assay type: biochemical
T4 construct: made in house; host or cells: E. coli BL21(DE3)
T4 sequence (P05364 21-381): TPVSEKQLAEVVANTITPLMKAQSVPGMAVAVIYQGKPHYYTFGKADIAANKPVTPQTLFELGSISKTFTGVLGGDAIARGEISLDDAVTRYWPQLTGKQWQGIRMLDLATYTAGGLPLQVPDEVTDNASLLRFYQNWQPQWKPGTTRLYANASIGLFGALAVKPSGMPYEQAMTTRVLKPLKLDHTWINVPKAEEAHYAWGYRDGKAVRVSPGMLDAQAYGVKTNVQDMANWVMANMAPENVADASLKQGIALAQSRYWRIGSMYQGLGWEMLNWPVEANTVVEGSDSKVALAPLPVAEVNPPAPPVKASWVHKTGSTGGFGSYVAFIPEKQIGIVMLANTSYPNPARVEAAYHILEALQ

[5] = target: T5, OXA-1 β-lactamase (Class D oxacillinase) (Escherichia coli, UniProt P13661); assay: β-Lactamase inhibition, OXA-1; assay type: biochemical; details: nitrocefin 100 μM, 486 nm; 15 min preincubation at 37° C., PBS pH 7.4
T5 construct: made in house; host or cells: E. coli BL21(DE3)
T5 sequence (P13661 26-276): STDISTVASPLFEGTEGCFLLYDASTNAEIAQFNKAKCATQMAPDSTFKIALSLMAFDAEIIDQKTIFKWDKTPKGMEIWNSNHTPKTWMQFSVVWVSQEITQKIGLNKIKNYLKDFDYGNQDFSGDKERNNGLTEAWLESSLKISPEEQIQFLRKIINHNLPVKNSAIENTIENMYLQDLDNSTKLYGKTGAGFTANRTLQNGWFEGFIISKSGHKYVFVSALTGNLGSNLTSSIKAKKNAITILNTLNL
How it was run: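 Untagged enzyme from E. coli BL21(DE3), purified by Capto S then Superdex 75; 15 min 37 °C preincubation with inhibitor; KPC-2 read with imipenem at 300 nm, SHV-5 with cefotaxime at 260 nm, OXA-1 with nitrocefin 100 μM final at 486 nm; 10 min kinetic read; IC50 vs uninhibited wells.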

[6] = system: E. coli ESBL4 expressing CTX-M-15; assay: Broth microdilution MIC, E. coli ESBL4 CTX-M-15; assay type: cell-based; details: fixed 4 μg/mL ceftazidime; CAMHB, 16-20 hours at 37° C.
How it was run: (§2)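 Growth inhibition by test compound in presence of a fixed 4 μg/ml β-lactam; CLSI microdilution in CAMHB, visual endpoint after overnight 37° C incubation.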

[7] = system: E. cloacae 144200 expressing Class C P99 AmpC; assay: Broth microdilution MIC, E. cloacae 144200 p99 AmpC; assay type: cell-based; details: fixed 4 μg/mL ceftazidime; CAMHB, 16-20 hours at 37° C.
How it was run: as §2

[8] = system: K. pneumoniae 156319 expressing KPC-3; assay: Broth microdilution MIC, K. pneumoniae 156319 KPC-3; assay type: cell-based; details: fixed 4 μg/mL meropenem; CAMHB, 16-20 hours at 37° C.
How it was run: as §2

[9] = system: P. aeruginosa Ps296 expressing VIM-2; assay: Broth microdilution MIC, P. aeruginosa Ps296 VIM-2; assay type: cell-based; details: fixed 4 μg/mL meropenem; CAMHB, 16-20 hours at 37° C.
How it was run: as §2

[10] = system: K. pneumoniae A-1797 expressing KPC-2 and VIM-4; assay: Broth microdilution MIC, K. pneumoniae A-1797 KPC-2/VIM-4; assay type: cell-based; details: fixed 4 μg/mL meropenem; CAMHB, 16-20 hours at 37° C.
How it was run: as §2

[11] = system: S. aureus MSSA-7 producing penicillinase PC-1; assay: Broth microdilution MIC, S. aureus MSSA-7 PC-1; assay type: cell-based; details: fixed 4 μg/mL piperacillin; CAMHB, 16-20 hours at 37° C.
How it was run: as §2

T1 sequence (P0A3M1 22-286): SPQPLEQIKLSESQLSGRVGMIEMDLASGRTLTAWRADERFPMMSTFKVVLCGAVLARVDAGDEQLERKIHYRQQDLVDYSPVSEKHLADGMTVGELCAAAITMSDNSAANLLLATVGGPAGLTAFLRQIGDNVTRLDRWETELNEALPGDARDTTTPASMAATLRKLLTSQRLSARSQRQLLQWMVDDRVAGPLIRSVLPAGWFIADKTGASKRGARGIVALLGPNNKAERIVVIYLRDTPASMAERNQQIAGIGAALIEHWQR

## O=C(CC1CCNCC1)N[C@H]1Cc2cccc(C(=O)O)c2OB1O [Example 32, 2-Hydroxy-3-(2-piperidin-4-yl-acetylamino)-3,4-dihydro-2H-benzo[e][1,2]oxaborinine-8-carboxylic acid]
[1]
  IC50: 10000 to 100000 nM
[2]
  IC50: 100 to 1000 nM
[3]
  IC50: 10000 to 100000 nM
[4]
  IC50: < 100 nM
[5]
  IC50: 100 to 1000 nM
[6]
  MIC of example compound in presence of fixed β-lactam: Fixed CAZ, E. coli ESBL4 CTX-M-15: C (the MIC in the presence of <4 μg/mL of a β-lactamase inhibitor)
[7]
  MIC of example compound in presence of fixed β-lactam: Fixed CAZ, E. cl. 144200 p99 AmpC: C (the MIC in the presence of <4 μg/mL of a β-lactamase inhibitor)
[8]
  MIC of example compound in presence of fixed β-lactam: Fixed Mero, K. P. 156319 KPC-3: A (an MIC of the fixed β-lactam antibiotic in the presence of >32 μg/mL of a β-lactamase inhibitor)
[9]
  MIC of example compound in presence of fixed β-lactam: Fixed Mero, P. aerug. Ps296 VIM-2: A (an MIC of the fixed β-lactam antibiotic in the presence of >32 μg/mL of a β-lactamase inhibitor)
[10]
  MIC of example compound in presence of fixed β-lactam: Fixed Mero, K. P. A-1797 KPC-2 VIM-4: A (an MIC of the fixed β-lactam antibiotic in the presence of >32 μg/mL of a β-lactamase inhibitor)
[11]
  MIC of example compound in presence of fixed β-lactam: Fixed Pip, S. aureus MSSA-7 PC-1: C (the MIC in the presence of <4 μg/mL of a β-lactamase inhibitor)

## N=C(N)NCCN1CCC(CCC(=O)N[C@H]2Cc3cccc(C(=O)O)c3OB2O)CC1 [Example 34, 3-{3-[1-(2-Guanidino-ethyl)-piperidin-4-yl]-propionylamino}-2-hydroxy-3,4-dihydro-2H-benzo[e][1,2]oxaborinine-8-carboxylic acid]
[1]
  IC50: < 100 nM
[2]
  IC50: 100 to 1000 nM
[3]
  IC50: 10000 to 100000 nM
[4]
  IC50: 100 to 1000 nM
[5]
  IC50: 100 to 1000 nM
[6]
  MIC of example compound in presence of fixed β-lactam: Fixed CAZ, E. coli ESBL4 CTX-M-15: C (the MIC in the presence of <4 μg/mL of a β-lactamase inhibitor)
[7]
  MIC of example compound in presence of fixed β-lactam: Fixed CAZ, E. cl. 144200 p99 AmpC: C (the MIC in the presence of <4 μg/mL of a β-lactamase inhibitor)
[8]
  MIC of example compound in presence of fixed β-lactam: Fixed Mero, K. P. 156319 KPC-3: A (an MIC of the fixed β-lactam antibiotic in the presence of >32 μg/mL of a β-lactamase inhibitor)
[9]
  MIC of example compound in presence of fixed β-lactam: Fixed Mero, P. aerug. Ps296 VIM-2: A (an MIC of the fixed β-lactam antibiotic in the presence of >32 μg/mL of a β-lactamase inhibitor)
[10]
  MIC of example compound in presence of fixed β-lactam: Fixed Mero, K. P. A-1797 KPC-2 VIM-4: A (an MIC of the fixed β-lactam antibiotic in the presence of >32 μg/mL of a β-lactamase inhibitor)
[11]
  MIC of example compound in presence of fixed β-lactam: Fixed Pip, S. aureus MSSA-7 PC-1: C (the MIC in the presence of <4 μg/mL of a β-lactamase inhibitor)

## N#CCN1CCC(CC(=O)N[C@H]2Cc3cccc(C(=O)O)c3OB2O)CC1 [Example 35, 3-[2-(1-Cyanomethyl-piperidin-4-yl)-acetylamino]-2-hydroxy-3,4-dihydro-2H-benzo[e][1,2]oxaborinine-8-carboxylic acid]
[1]
  IC50: 100 to 1000 nM
[2]
  IC50: 100 to 1000 nM
[3]
  IC50: 10000 to 100000 nM
[4]
  IC50: 100 to 1000 nM
[5]
  IC50: 100 to 1000 nM
[6]
  MIC of example compound in presence of fixed β-lactam: Fixed CAZ, E. coli ESBL4 CTX-M-15: C (the MIC in the presence of <4 μg/mL of a β-lactamase inhibitor)
[7]
  MIC of example compound in presence of fixed β-lactam: Fixed CAZ, E. cl. 144200 p99 AmpC: C (the MIC in the presence of <4 μg/mL of a β-lactamase inhibitor)
[8]
  MIC of example compound in presence of fixed β-lactam: Fixed Mero, K. P. 156319 KPC-3: B (the MIC in the presence of between 8 and 32 μg/mL of a β-lactamase inhibitor)
[9]
  MIC of example compound in presence of fixed β-lactam: Fixed Mero, P. aerug. Ps296 VIM-2: A (an MIC of the fixed β-lactam antibiotic in the presence of >32 μg/mL of a β-lactamase inhibitor)
[10]
  MIC of example compound in presence of fixed β-lactam: Fixed Mero, K. P. A-1797 KPC-2 VIM-4: B (the MIC in the presence of between 8 and 32 μg/mL of a β-lactamase inhibitor)
[11]
  MIC of example compound in presence of fixed β-lactam: Fixed Pip, S. aureus MSSA-7 PC-1: C (the MIC in the presence of <4 μg/mL of a β-lactamase inhibitor)

## NCCN1CCN(CC(=O)N[C@H]2Cc3cccc(C(=O)O)c3OB2O)C(=O)C1 [Example 36, 3-{2-[4-(2-Amino-ethyl)-2-oxo-piperazin-1-yl]-acetylamino}-2-hydroxy-3,4-dihydro-2H-benzo[e][1,2]oxaborinine-8-carboxylic acid]
[1]
  IC50: < 100 nM
[2]
  IC50: 100 to 1000 nM
[3]
  IC50: 1000 to 10000 nM
[4]
  IC50: < 100 nM
[5]
  IC50: < 100 nM
[6]
  MIC of example compound in presence of fixed β-lactam: Fixed CAZ, E. coli ESBL4 CTX-M-15: C (the MIC in the presence of <4 μg/mL of a β-lactamase inhibitor)
[7]
  MIC of example compound in presence of fixed β-lactam: Fixed CAZ, E. cl. 144200 p99 AmpC: C (the MIC in the presence of <4 μg/mL of a β-lactamase inhibitor)
[8]
  MIC of example compound in presence of fixed β-lactam: Fixed Mero, K. P. 156319 KPC-3: B (the MIC in the presence of between 8 and 32 μg/mL of a β-lactamase inhibitor)
[9]
  MIC of example compound in presence of fixed β-lactam: Fixed Mero, P. aerug. Ps296 VIM-2: B (the MIC in the presence of between 8 and 32 μg/mL of a β-lactamase inhibitor)
[10]
  MIC of example compound in presence of fixed β-lactam: Fixed Mero, K. P. A-1797 KPC-2 VIM-4: B (the MIC in the presence of between 8 and 32 μg/mL of a β-lactamase inhibitor)
[11]
  MIC of example compound in presence of fixed β-lactam: Fixed Pip, S. aureus MSSA-7 PC-1: C (the MIC in the presence of <4 μg/mL of a β-lactamase inhibitor)

## N=C(N)NCC1CCCN(CC(=O)N[C@H]2Cc3cccc(C(=O)O)c3OB2O)C1 (stereo partly drawn) [Example 37, 3-[2-(3-Guanidinomethyl-piperidin-1-yl)-acetylamino]-2-hydroxy-3,4-dihydro-2H-benzo[e][1,2]oxaborinine-8-carboxylic acid]
[1]
  IC50: 100 to 1000 nM
[2]
  IC50: 100 to 1000 nM
[3]
  IC50: 100 to 1000 nM
[4]
  IC50: < 100 nM
[5]
  IC50: 100 to 1000 nM
[6]
  MIC of example compound in presence of fixed β-lactam: Fixed CAZ, E. coli ESBL4 CTX-M-15: C (the MIC in the presence of <4 μg/mL of a β-lactamase inhibitor)
[7]
  MIC of example compound in presence of fixed β-lactam: Fixed CAZ, E. cl. 144200 p99 AmpC: C (the MIC in the presence of <4 μg/mL of a β-lactamase inhibitor)
[8]
  MIC of example compound in presence of fixed β-lactam: Fixed Mero, K. P. 156319 KPC-3: C (the MIC in the presence of <4 μg/mL of a β-lactamase inhibitor)
[9]
  MIC of example compound in presence of fixed β-lactam: Fixed Mero, P. aerug. Ps296 VIM-2: A (an MIC of the fixed β-lactam antibiotic in the presence of >32 μg/mL of a β-lactamase inhibitor)
[10]
  MIC of example compound in presence of fixed β-lactam: Fixed Mero, K. P. A-1797 KPC-2 VIM-4: B (the MIC in the presence of between 8 and 32 μg/mL of a β-lactamase inhibitor)
[11]
  MIC of example compound in presence of fixed β-lactam: Fixed Pip, S. aureus MSSA-7 PC-1: C (the MIC in the presence of <4 μg/mL of a β-lactamase inhibitor)

## O=C(COC1CCNCC1)N[C@H]1Cc2cccc(C(=O)O)c2OB1O [Example 39, 2-Hydroxy-3-[2-(piperidin-4-yloxy)-acetylamino]-3,4-dihydro-2H-benzo[e][1,2]oxaborinine-8-carboxylic acid]
[1]
  IC50: 100 to 1000 nM
[2]
  IC50: < 100 nM
[3]
  IC50: 100 to 1000 nM
[4]
  IC50: < 100 nM
[5]
  IC50: < 100 nM
[6]
  MIC of example compound in presence of fixed β-lactam: Fixed CAZ, E. coli ESBL4 CTX-M-15: C (the MIC in the presence of <4 μg/mL of a β-lactamase inhibitor)
[7]
  MIC of example compound in presence of fixed β-lactam: Fixed CAZ, E. cl. 144200 p99 AmpC: C (the MIC in the presence of <4 μg/mL of a β-lactamase inhibitor)
[8]
  MIC of example compound in presence of fixed β-lactam: Fixed Mero, K. P. 156319 KPC-3: C (the MIC in the presence of <4 μg/mL of a β-lactamase inhibitor)
[9]
  MIC of example compound in presence of fixed β-lactam: Fixed Mero, P. aerug. Ps296 VIM-2: C (the MIC in the presence of <4 μg/mL of a β-lactamase inhibitor)
[10]
  MIC of example compound in presence of fixed β-lactam: Fixed Mero, K. P. A-1797 KPC-2 VIM-4: B (the MIC in the presence of between 8 and 32 μg/mL of a β-lactamase inhibitor)
[11]
  MIC of example compound in presence of fixed β-lactam: Fixed Pip, S. aureus MSSA-7 PC-1: C (the MIC in the presence of <4 μg/mL of a β-lactamase inhibitor)
